Results as given in EP0120428A1, “Benzopyran isomers” (BEECHAM GROUP PLC, priority 1983, dated 1984).

Experiments:
[1] = disclosed in European patent publication 9912; cited from earlier work
[2] = tested on: Spontaneously hypertensive rats; test: Systolic blood pressure and heart rate by modified tail cuff method in spontaneously hypertensive rats; assay type: in vivo; settings: 0.3 mg/kg p.o.; for %Change in Systolic Blood Blood: initial blood pressure 180±7mmHg; for %Change in Heart Rate: initial heart rate 507±5beats/min
Protocol: Systolic blood pressures were recorded by a modification of the tail cuff method described by I.M. Claxton, M.G. Palfreyman, R.H. Poyser, R.L. Whiting, European Journal of Pharmacology, 37, 179 (1976).
W+W BP recorder, model 8005, was used to display pulses. Prior to all measurments rats were placed in a heated environment (33.5±0.5°C) before transfer to a restraining cage. Each determination of blood pressure was the mean of at least 6 readings. Spontaneously hypertensive rats (ages 12-18 weeks) with systolic blood pressures >170 mmHg were considered hypertensive.

[3] = 5 rats, 2 hours post dose (2 rats had no measurable pulse)
[4] = 5 rats, 4 hours post dose (3 rats had no measurable pulse)
[5] = 5 rats, 6 hours post dose (2 rats had no measurable pulse)
[6] = 24 hours post dose (4 rats only)

SMILES | blood pressure lowering activity [1] | %Change in Systolic Blood Blood ([2]; 5 rats, 1 hour post dose) | %Change in Systolic Blood Blood [2, 3] | %Change in Systolic Blood Blood [2, 4] | %Change in Systolic Blood Blood [2, 5] | %Change in Heart Rate ([2]; 5 rats, 1 hour post dose) | %Change in Heart Rate [2, 3] | %Change in Heart Rate [2, 4] | %Change in Heart Rate [2, 5] | %Change in Systolic Blood Blood [2, 6] | %Change in Heart Rate [2, 6]
CC1(C)Oc2ccc(C#N)cc2[C@@H](N2CCCC2)[C@@H]1O (relative stereo) [6-cyano-3,4-dihydro-2,2-dimethyl-trans 4-pyrrolidino-2H-benzo[b]pyran-3-ol] | has blood pressure lowering activity |  |  |  |  |  |  |  |  |  | 
CC1(C)Oc2ccc(C#N)cc2[C@@H](N2CCCC2=O)[C@@H]1O (relative stereo) [Compound (1) of Example (3S,4R)-isomer, 6-cyano-3,4-dihydro-2,2-dimethyl-trans-4-(2-oxo-1-pyrrolidinyl)-2H-benzo[b]pyran-3-ol] |  | -59 ± 4% | -52 ± 7% | -32% | -28 ± 8% | -2 ± 2% | -6 ± 3% | -15% | -5 ± 1% | -14 ± 7% | -3 ± 2%
CC1(C)Oc2ccc(C#N)cc2[C@@H](N2CCCC2)[C@@H]1O (single isomer, unassigned; isomer 6) [(+)-isomer, 6-cyano-3,4-dihydro-2,2-dimethyl-trans 4-pyrrolidino-2H-benzo[b]pyran-3-ol] | greater blood pressure lowering activity than the (-)- isomer |  |  |  |  |  |  |  |  |  | 
